In brackets after ≈: the same amount, converted by molar mass.
Tested on: Candida albicans
Experiment: Antifungal activity against Candida albicans NCPF 3153 after 15 hrs by colorimetric broth microdilution test
Assay type: functional
Settings: NCPF 3153, 15 h

C[C@H]1CCC/C=C/[C@@H]2C[C@H](O)C[C@H]2[C@H](O)/C=C/C(=O)O1 [BREFELDIN A]
MIC: 32 µg/mL (≈ 114 µM)

— ChEMBL document CHEMBL2046269, “Phthalide and isocoumarin derivatives produced by an Acremonium sp. isolated from a mangrove Rhizophora apiculata” (2012)
